Earlier results in patent US12673064B2, “Biodegradable drug-polymer conjugate” (POLYACTIVA PTY LTD, priority 2019, dated 2026).

Assays:
[1] = 0.002% dosage, week 1

Row | SMILES | effectiveness versus latanoprost 0.005% [1] | IOP and total outflow resistance (monkeys) | uveoscleral outflow or aqueous flow (monkeys)
1 | CC(C)OC(=O)CNc1cccc(CN(Cc2ccc(-n3cccn3)cc2)S(=O)(=O)c2cccnc2)n1 [Omidenepag isopropyl] | more effective than latanoprost 0.005% | – | –
2 | CCCCC[C@H](O)/C=C/[C@H]1[C@H](O)CC(=O)[C@@H]1SCCCSCC(=O)O [3,7-dithia-PGE1] | – | reduced | without affecting
